{
  "source": "PubChem BioAssay AID1963842",
  "about": "(Molecular Pharmacology Branch, DTP, NCI, 2024)",
  "tested_on": "677734-321-R-J1-PDC complex spheroid viability",
  "test": "Anticancer human tumor 677734-321-R-J1-PDC patient-derived soft tissue sarcoma cell line growth inhibition [POLQ]",
  "settings": "for IC50: curve of first compound; for viability, T/C: stronger effect = lower value",
  "summary_of_the_method": "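Patient-derived tumour cells were co-cultured with HUVEC and mesenchymal stem cells as multicellular spheroids at 37 °C. They were treated with POLQ inhibitors (novobiocin, ART-558, RP6685) alone or combined with other agents. Top concentrations were at or near clinical Cmax (otherwise 10 microM; SN-38 at 1 microM), decreasing in half-log steps.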",
  "key": {"[1]": {"settings": "second compound 0.0316 µM, first compound 0.0316 µM"}, "[2]": {"settings": "second compound 0.0316 µM, first compound 0.1 µM"}, "[3]": {"settings": "second compound 0.0316 µM, first compound 0.316 µM"}, "[4]": {"settings": "second compound 0.0316 µM, first compound 1 µM"}, "[5]": {"settings": "second compound 0.0316 µM, first compound 3.16 µM"}, "[6]": {"settings": "second compound 0.0316 µM, first compound 10 µM"}, "[7]": {"settings": "second compound 0.1 µM, first compound 0.0316 µM"}, "[8]": {"settings": "second compound 0.1 µM, first compound 0.1 µM"}, "[9]": {"settings": "second compound 0.1 µM, first compound 0.316 µM"}, "[10]": {"settings": "second compound 0.1 µM, first compound 1 µM"}, "[11]": {"settings": "second compound 0.1 µM, first compound 3.16 µM"}, "[12]": {"settings": "second compound 0.1 µM, first compound 10 µM"}, "[13]": {"settings": "second compound 0.316 µM, first compound 0.0316 µM"}, "[14]": {"settings": "second compound 0.316 µM, first compound 0.1 µM"}, "[15]": {"settings": "second compound 0.316 µM, first compound 0.316 µM"}, "[16]": {"settings": "second compound 0.316 µM, first compound 1 µM"}, "[17]": {"settings": "second compound 0.316 µM, first compound 3.16 µM"}, "[18]": {"settings": "second compound 0.316 µM, first compound 10 µM"}, "[19]": {"settings": "second compound 1 µM, first compound 0.0316 µM"}, "[20]": {"settings": "second compound 1 µM, first compound 0.1 µM"}, "[21]": {"settings": "second compound 1 µM, first compound 0.316 µM"}, "[22]": {"settings": "second compound 1 µM, first compound 1 µM"}, "[23]": {"settings": "second compound 1 µM, first compound 3.16 µM"}, "[24]": {"settings": "second compound 1 µM, first compound 10 µM"}, "[25]": {"settings": "second compound 3.16 µM, first compound 0.0316 µM"}, "[26]": {"settings": "second compound 3.16 µM, first compound 0.1 µM"}, "[27]": {"settings": "second compound 3.16 µM, first compound 0.316 µM"}, "[28]": {"settings": "second compound 3.16 µM, first compound 1 µM"}, "[29]": {"settings": "second compound 3.16 µM, first compound 3.16 µM"}, "[30]": {"settings": "second compound 3.16 µM, first compound 10 µM"}, "[31]": {"settings": "second compound 10 µM, first compound 0.0316 µM"}, "[32]": {"settings": "second compound 10 µM, first compound 0.1 µM"}, "[33]": {"settings": "second compound 10 µM, first compound 0.316 µM"}, "[34]": {"settings": "second compound 10 µM, first compound 1 µM"}, "[35]": {"settings": "second compound 10 µM, first compound 3.16 µM"}, "[36]": {"settings": "second compound 10 µM, first compound 10 µM"}},
  "data": [
    {"compound": "CC1COCCN1c1cc(C2(S(C)(=N)=O)CC2)nc(-c2ccnc3[nH]ccc23)n1", "note": "(centres undefined) + COC1C(OC(N)=O)C(O)C(Oc2ccc3c(O)c(NC(=O)c4ccc(O)c(CC=C(C)C)c4)c(=O)oc3c2C)OC1(C)C;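 note: spheroids exposed to compounds for one week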;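 for viability, T/C: 100% = vehicle DMSO treated spheroids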", "values": [
      {"measurement": "IC50", "setting": "second compound 0.0316 µM", "value": 5.96, "unit": "µM"},
      {"measurement": "IC50", "setting": "second compound 0.1 µM", "value": 4.24, "unit": "µM"},
      {"measurement": "IC50", "setting": "second compound 0.316 µM", "value": 3.12, "unit": "µM"},
      {"measurement": "IC50", "setting": "second compound 1 µM", "value": 4.67, "unit": "µM"},
      {"measurement": "IC50", "setting": "second compound 3.16 µM", "value": 3.85, "unit": "µM"},
      {"measurement": "IC50", "setting": "second compound 10 µM", "value": 3.85, "unit": "µM"},
      {"measurement": "viability, T/C", "setting": "[1]", "value": 109, "unit": "%"},
      {"measurement": "viability, T/C", "setting": "[2]", "value": 117, "unit": "%"},
      {"measurement": "viability, T/C", "setting": "[3]", "value": 95.5, "unit": "%"},
      {"measurement": "viability, T/C", "setting": "[4]", "value": 101, "unit": "%"},
      {"measurement": "viability, T/C", "setting": "[5]", "value": 62.4, "unit": "%"},
      {"measurement": "viability, T/C", "setting": "[6]", "value": 39.5, "unit": "%"},
      {"measurement": "viability, T/C", "setting": "[7]", "value": 110, "unit": "%"},
      {"measurement": "viability, T/C", "setting": "[8]", "value": 113, "unit": "%"},
      {"measurement": "viability, T/C", "setting": "[9]", "value": 106, "unit": "%"},
      {"measurement": "viability, T/C", "setting": "[10]", "value": 93, "unit": "%"},
      {"measurement": "viability, T/C", "setting": "[11]", "value": 58.7, "unit": "%"},
      {"measurement": "viability, T/C", "setting": "[12]", "value": 24.3, "unit": "%"},
      {"measurement": "viability, T/C", "setting": "[13]", "value": 109, "unit": "%"},
      {"measurement": "viability, T/C", "setting": "[14]", "value": 104, "unit": "%"},
      {"measurement": "viability, T/C", "setting": "[15]", "value": 104, "unit": "%"},
      {"measurement": "viability, T/C", "setting": "[16]", "value": 91.1, "unit": "%"},
      {"measurement": "viability, T/C", "setting": "[17]", "value": 49.5, "unit": "%"},
      {"measurement": "viability, T/C", "setting": "[18]", "value": 18.5, "unit": "%"},
      {"measurement": "viability, T/C", "setting": "[19]", "value": 112, "unit": "%"},
      {"measurement": "viability, T/C", "setting": "[20]", "value": 98.7, "unit": "%"},
      {"measurement": "viability, T/C", "setting": "[21]", "value": 100, "unit": "%"},
      {"measurement": "viability, T/C", "setting": "[22]", "value": 92.2, "unit": "%"},
      {"measurement": "viability, T/C", "setting": "[23]", "value": 62.3, "unit": "%"},
      {"measurement": "viability, T/C", "setting": "[24]", "value": 24.3, "unit": "%"},
      {"measurement": "viability, T/C", "setting": "[25]", "value": 109, "unit": "%"},
      {"measurement": "viability, T/C", "setting": "[26]", "value": 104, "unit": "%"},
      {"measurement": "viability, T/C", "setting": "[27]", "value": 99.6, "unit": "%"},
      {"measurement": "viability, T/C", "setting": "[28]", "value": 98.8, "unit": "%"},
      {"measurement": "viability, T/C", "setting": "[29]", "value": 55.5, "unit": "%"},
      {"measurement": "viability, T/C", "setting": "[30]", "value": 22.9, "unit": "%"},
      {"measurement": "viability, T/C", "setting": "[31]", "value": 108, "unit": "%"},
      {"measurement": "viability, T/C", "setting": "[32]", "value": 107, "unit": "%"},
      {"measurement": "viability, T/C", "setting": "[33]", "value": 106, "unit": "%"},
      {"measurement": "viability, T/C", "setting": "[34]", "value": 92, "unit": "%"},
      {"measurement": "viability, T/C", "setting": "[35]", "value": 56, "unit": "%"},
      {"measurement": "viability, T/C", "setting": "[36]", "value": 21.6, "unit": "%"}
    ]},
    {"compound": "CCCS(=O)(=O)Nc1ccc(F)c(C(=O)c2c[nH]c3ncc(-c4ccc(Cl)cc4)cc23)c1F", "note": "+ COC1C(OC(N)=O)C(O)C(Oc2ccc3c(O)c(NC(=O)c4ccc(O)c(CC=C(C)C)c4)c(=O)oc3c2C)OC1(C)C", "values": [
      {"measurement": "IC50", "setting": "second compound 0.0316 µM", "value": 6.53, "unit": "µM"},
      {"measurement": "IC50", "setting": "second compound 0.1 µM", "value": 6.39, "unit": "µM"},
      {"measurement": "IC50", "setting": "second compound 0.316 µM", "value": 6.59, "unit": "µM"},
      {"measurement": "IC50", "setting": "second compound 1 µM", "value": 6.51, "unit": "µM"},
      {"measurement": "IC50", "setting": "second compound 3.16 µM", "value": 6.73, "unit": "µM"},
      {"measurement": "IC50", "setting": "second compound 10 µM", "value": 6.49, "unit": "µM"},
      {"measurement": "viability, T/C", "setting": "[1]", "value": 103, "unit": "%"},
      {"measurement": "viability, T/C", "setting": "[2]", "value": 109, "unit": "%"},
      {"measurement": "viability, T/C", "setting": "[3]", "value": 101, "unit": "%"},
      {"measurement": "viability, T/C", "setting": "[4]", "value": 118, "unit": "%"},
      {"measurement": "viability, T/C", "setting": "[5]", "value": 106, "unit": "%"},
      {"measurement": "viability, T/C", "setting": "[6]", "value": 16.7, "unit": "%"},
      {"measurement": "viability, T/C", "setting": "[7]", "value": 108, "unit": "%"},
      {"measurement": "viability, T/C", "setting": "[8]", "value": 107, "unit": "%"},
      {"measurement": "viability, T/C", "setting": "[9]", "value": 104, "unit": "%"},
      {"measurement": "viability, T/C", "setting": "[10]", "value": 120, "unit": "%"},
      {"measurement": "viability, T/C", "setting": "[11]", "value": 104, "unit": "%"},
      {"measurement": "viability, T/C", "setting": "[12]", "value": 15.3, "unit": "%"},
      {"measurement": "viability, T/C", "setting": "[13]", "value": 105, "unit": "%"},
      {"measurement": "viability, T/C", "setting": "[14]", "value": 110, "unit": "%"},
      {"measurement": "viability, T/C", "setting": "[15]", "value": 109, "unit": "%"},
      {"measurement": "viability, T/C", "setting": "[16]", "value": 110, "unit": "%"},
      {"measurement": "viability, T/C", "setting": "[17]", "value": 109, "unit": "%"},
      {"measurement": "viability, T/C", "setting": "[18]", "value": 16.6, "unit": "%"},
      {"measurement": "viability, T/C", "setting": "[19]", "value": 103, "unit": "%"},
      {"measurement": "viability, T/C", "setting": "[20]", "value": 107, "unit": "%"},
      {"measurement": "viability, T/C", "setting": "[21]", "value": 101, "unit": "%"},
      {"measurement": "viability, T/C", "setting": "[22]", "value": 112, "unit": "%"},
      {"measurement": "viability, T/C", "setting": "[23]", "value": 109, "unit": "%"},
      {"measurement": "viability, T/C", "setting": "[24]", "value": 16.5, "unit": "%"},
      {"measurement": "viability, T/C", "setting": "[25]", "value": 106, "unit": "%"},
      {"measurement": "viability, T/C", "setting": "[26]", "value": 101, "unit": "%"},
      {"measurement": "viability, T/C", "setting": "[27]", "value": 111, "unit": "%"},
      {"measurement": "viability, T/C", "setting": "[28]", "value": 112, "unit": "%"},
      {"measurement": "viability, T/C", "setting": "[29]", "value": 112, "unit": "%"},
      {"measurement": "viability, T/C", "setting": "[30]", "value": 19.3, "unit": "%"},
      {"measurement": "viability, T/C", "setting": "[31]", "value": 107, "unit": "%"},
      {"measurement": "viability, T/C", "setting": "[32]", "value": 104, "unit": "%"},
      {"measurement": "viability, T/C", "setting": "[33]", "value": 109, "unit": "%"},
      {"measurement": "viability, T/C", "setting": "[34]", "value": 105, "unit": "%"},
      {"measurement": "viability, T/C", "setting": "[35]", "value": 105, "unit": "%"},
      {"measurement": "viability, T/C", "setting": "[36]", "value": 17.2, "unit": "%"}
    ]}
  ]
}
